In patent EP4707280A1, “1,4-CINEOLE DERIVATIVE AND INTERMEDIATE THEREOF, HERBICIDE CONTAINING SAID DERIVATIVE AS ACTIVE INGREDIENT, METHOD FOR USING HERBICIDE, AND METHOD FOR PREPARING AGROCHEMICAL COMPOSITION” (HOKKO CHEMICAL INDUSTRY CO., LTD., priority 2023, dated 2024):

Key:
Assay type in all cases: in vivo
[1] = system: Echinochloa crus-galli var. formosensis; experiment: Test Example 6: herbicidal effect test by application during growth period of paddy rice (low dose); details: 7.5 g per 10 ares, applied seven days after sowing, flooded pots, 14 days after application; for inhibition at 75 g/ha: Echinochloa crus-galli, read-out: weed inhibition rate
Experimental: (§1) The present test was conducted in duplicate for each chemical concentration group, and the weed inhibition rate (%) was determined 14 days after chemical application using the following formula (Math. 1). [formula]
(§2) Wagner pots with an area of […] were filled with paddy soil, followed by addition of water and incorporation of chemical fertilizer (N:P:K = 16:16:16), after which puddling was performed. After that, seeds of Echinochloa crus-galli var. formosensis, broad-leaved weeds (Monochoria vaginalis), and Scirpus juncoides were sown at a depth of 0 cm to 1 cm, 30 seeds each. Immediately after sowing, the pots were flooded and a water depth of approximately 3 cm was maintained. Subsequent management was conducted in a glass greenhouse. Seven days after sowing, an emulsifiable concentrate prepared according to Formulation Example 5 using the compound shown below was diluted with water, and a specified amount of the diluted solution was applied by dropper. The amount of the active ingredient to be applied was equivalent to 7.5 g per 10 ares. The test was conducted in duplicate for each chemical concentration group, and the herbicidal effect was evaluated 14 days after chemical application using the same criteria as in Test Example 1.

[2] = system: Echinochloa crus-galli var. formosensis; experiment: Test Example 2: herbicidal effect test by application during growth period of paddy rice; details: 120 g per 10 ares, applied seven days after sowing, flooded pots, 14 days after application; for inhibition at 1200 g/ha: Echinochloa crus-galli, read-out: weed inhibition rate
Outline: (§3)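 Flooded paddy pot test, greenhouse. Seeds 30/species, 0–1 cm depth, water ~3 cm. EC diluted in water, dropper-applied 7 d post-sowing at 120 g a.i./10 a. Inhibition rate (%) read 14 d after treatment; n=2.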

[3] = system: Echinochloa crus-galli var. formosensis; experiment: Test Example 5: herbicidal effect test by soil application in paddy rice (low dose); details: 7.5 g per 10 ares, applied immediately after sowing, flooded pots, 14 days after application; for inhibition at 75 g/ha: Echinochloa crus-galli, soil, 336 h, read-out: weed inhibition rate
Experimental: as §1
as §2, with “Immediately thereafter,” for “Seven days after sowing,”, “The test was conducted in duplicate for each chemical concentration group, and the herbicidal effect was evaluated 14 days after chemical application using the same criteria as in Test Example 1.” left out

[4] = system: Echinochloa crus-galli var. formosensis; experiment: Test Example 1: herbicidal effect test by soil application in paddy rice; details: 120 g active ingredient per 10 ares, applied immediately after sowing, flooded pots, 14 days after application; for pest or weed control at 1200 g/ha: Echinochloa crus-galli, soil, 336 h, read-out: weed inhibition rate
Outline: (§4)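 Paddy soil in Wagner pots (1/10,000 acre) was fertilized (N:P:K 16:16:16) and puddled, then weed seeds were sown 0–1 cm deep, 30 each. Pots were flooded to ~3 cm and kept in a glass greenhouse. Emulsifiable concentrate diluted in water was dropped on immediately after sowing at 120 g a.i. per 10 ares.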

Echinochloa crus-galli [5] = experiment: Test Example 4: herbicidal effect test by stem and leaf treatment in upland field; details: Echinochloa crus-galli; 120 g per 10 ares; sprayed seven days after sowing, upland soil; 14 days after application; read-out: weed inhibition rate
Digitaria ciliaris [6] = experiment: as above; details: Digitaria ciliaris; 120 g per 10 ares; sprayed seven days after sowing, upland soil; 14 days after application; read-out: weed inhibition rate
Echinochloa crus-galli [7] = experiment: Test Example 3: herbicidal effect test by soil application in upland field; details: Echinochloa crus-galli, 120 g per 10 ares, sprayed one day after sowing, 14 days after application, read-out: weed inhibition rate
Outline: (§5)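 Pre-emergence test: seeds mixed into top 1 cm of alluvial loam upland soil in pots; emulsifiable concentrate diluted in water sprayed on soil one day after sowing at 100 L/10 a, 120 g a.i./10 a. Weed inhibition rate (%) scored at 14 days, in duplicate.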

Digitaria ciliaris [8] = experiment: as above; details: Digitaria ciliaris, 120 g per 10 ares, sprayed one day after sowing, 14 days after application, read-out: weed inhibition rate
Outline: as §5

Scirpus juncoides [9] = experiment: Test Example 1: herbicidal effect test by soil application in paddy rice; details: Schoenoplectiella juncoides, soil, 336 h; 120 g active ingredient per 10 ares; applied immediately after sowing, flooded pots; 14 days after application; read-out: weed inhibition rate
Outline: as §4

Scirpus juncoides [10] = experiment: Test Example 2: herbicidal effect test by application during growth period of paddy rice; details: Schoenoplectiella juncoides; 120 g per 10 ares; applied seven days after sowing, flooded pots; 14 days after application; read-out: weed inhibition rate
Outline: as §3

CC(C)[C@]12C[C@@H](OCc3cccc4ccccc34)[C@](C)(C[C@@H]1Br)O2 [1-715, (1S,2R,4R,5S)-5-bromo-1-methyl-2-(naphthalen-1-ylmethoxy)-4-isopropyl-7-oxabicyclo[2.2.1]heptane]
≥ 80%: inhibition at 75 g/ha [1] | inhibition at 1200 g/ha [2] | inhibition at 75 g/ha [3] | pest or weed control at 1200 g/ha [4]

Cc1noc(C)c1CO[C@@H]1C[C@]2(C(C)C)O[C@@]1(C)C[C@@H]2Br [1-723, 4-[[(1S,2R,4R,5S)-5-bromo-1-methyl-4-isopropyl-7-oxabicyclo[2.2.1]heptan-2-yl]oxymethyl]-3,5-dimethyl-1,2-oxazole]
≥ 80%: inhibition at 75 g/ha [1] | inhibition at 1200 g/ha [2] | inhibition at 75 g/ha [3] | pest or weed control at 1200 g/ha [4]

CC(C)[C@]12C[C@@H](OCc3ccccc3F)[C@](C)(CC1c1ccsc1)O2 (stereo partly drawn) [1-928, (1S,2R,4R)-2-((2-fluorobenzyl)oxy)-4-isopropyl-1-methyl-5-(thiophen-3-yl)-7-oxabicyclo[2.2.1]heptane]
≥ 80%: inhibition at 1200 g/ha (Echinochloa crus-galli [5]) | inhibition at 75 g/ha [1] | inhibition at 1200 g/ha (Digitaria ciliaris [6]) | inhibition at 1200 g/ha [2] | inhibition at 75 g/ha [3] | pest or weed control at 1200 g/ha [4]

CC(C)[C@]12C[C@@H](OCC3CCCCC3)[C@](C)(C[C@@H]1Br)O2 [1-676, (1S,2R,4R,5S)-5-bromo-2-(cyclohexylmethoxy)-1-methyl-4-isopropyl-7-oxabicyclo[2.2.1]heptane]
≥ 80%: inhibition at 1200 g/ha (Echinochloa crus-galli [5]) | inhibition at 75 g/ha [1] | inhibition at 1200 g/ha (Digitaria ciliaris [6]) | inhibition at 1200 g/ha [2] | inhibition at 1200 g/ha (Echinochloa crus-galli [7]) | inhibition at 1200 g/ha (Digitaria ciliaris [8]) | inhibition at 75 g/ha [3] | pest or weed control at 1200 g/ha [4] | pest or weed control at 1200 g/ha (Scirpus juncoides [9])

CC(C)C12CC(OCc3cccnc3)C(C)(CC1Cl)O2 (centres unmarked) [1-1321, 3-[(5-chloro-4-isopropyl-1-methyl-7-oxabicyclo[2.2.1]heptan-2-yl)oxymethyl]pyridine]
≥ 80%: inhibition at 1200 g/ha (Scirpus juncoides [10]) | pest or weed control at 1200 g/ha (Scirpus juncoides [9])

COC(=O)c1ccccc1COC1CC2(C(C)C)OC1(C)CC2I (centres unmarked) [1-1442, methyl 2-[(5-iodo-4-isopropyl-1-methyl-7-oxabicyclo[2.2.1]heptan-2-yl)oxymethyl]benzoate]
≥ 80%: inhibition at 1200 g/ha (Scirpus juncoides [10]) | pest or weed control at 1200 g/ha (Scirpus juncoides [9])

COc1ccccc1CO[C@@H]1C[C@]2(C(C)C)O[C@@]1(C)CC2=O [2-7, (1R,4S,5R)-1-isopropyl-5-((2-methoxybenzyl)oxy)-4-methyl-7-oxabicyclo[2.2.1]heptan-2-one]
≥ 80%: inhibition at 1200 g/ha (Echinochloa crus-galli [5]) | inhibition at 1200 g/ha (Digitaria ciliaris [6]) | inhibition at 1200 g/ha [2] | inhibition at 75 g/ha [3] | pest or weed control at 1200 g/ha [4]

CC(=O)O[C@@H]1C[C@]2(C)O[C@@]1(C(C)C)C[C@H]2OCc1ccccc1F [1-932, [(1R,2R,4S,5R)-5-[(2-fluorophenyl)methoxy]-4-methyl-1-isopropyl-7-oxabicyclo[2.2.1]heptan-2-yl]acetate]
≥ 80%: weed inhibition rate [1] | weed inhibition rate [2] | weed inhibition rate [3] | weed inhibition rate [4]

COC(=O)c1ccccc1CO[C@H]1C[C@@]2(C(C)C)O[C@]1(C)C[C@H]2I [1-1115, methyl 2-[[(1R,2S,4S,5R)-5-iodo-1-methyl-4-isopropyl-7-oxabicyclo[2.2.1]heptan-2-yl]oxymethyl]benzoate]
≥ 80%: inhibition at 1200 g/ha (Scirpus juncoides [10]) | pest or weed control at 1200 g/ha (Scirpus juncoides [9])

CC(C)[C@]12C[C@@H](OCc3cccnc3)[C@](C)(C[C@@H]1I)O2 [1-786, 3-[[(1S,2R,4R,5S)-5-iodo-4-isopropyl-1-methyl-7-oxabicyclo[2.2.1]heptan-2-yl]oxymethyl]pyridine]
≥ 80%: inhibition at 1200 g/ha (Scirpus juncoides [10]) | pest or weed control at 1200 g/ha (Scirpus juncoides [9])

CCCCCCO[C@@H]1C[C@]2(C(C)C)O[C@@]1(C)C[C@@H]2Br [1-669, (1S,2R,4R,5S)-5-bromo-2-hexoxy-1-methyl-4-isopropyl-7-oxabicyclo[2.2.1]heptane]
≥ 80%: inhibition at 1200 g/ha (Echinochloa crus-galli [5]) | inhibition at 1200 g/ha (Digitaria ciliaris [6]) | inhibition at 1200 g/ha [2] | inhibition at 1200 g/ha (Scirpus juncoides [10]) | inhibition at 1200 g/ha (Echinochloa crus-galli [7]) | inhibition at 1200 g/ha (Digitaria ciliaris [8]) | pest or weed control at 1200 g/ha [4]

CC(C)C12CC(OCc3cccc(F)c3)C(C)(CC1Br)O2 (centres unmarked) [1-1356, 5-bromo-2-[(3-fluorophenyl)methoxy]-1-methyl-4-isopropyl-7-oxabicyclo[2.2.1]heptane]
≥ 80%: inhibition at 1200 g/ha (Echinochloa crus-galli [5]) | inhibition at 1200 g/ha (Digitaria ciliaris [6]) | inhibition at 1200 g/ha [2] | inhibition at 1200 g/ha (Echinochloa crus-galli [7]) | inhibition at 1200 g/ha (Digitaria ciliaris [8]) | pest or weed control at 1200 g/ha [4]

CC(C)[C@@]12C[C@H](OCc3c(F)cccc3Br)[C@@](C)(C[C@H]1Br)O2 [1-1609, (1R,2S,4S,5R)-5-bromo-2-[(2-bromo-6-fluorophenyl)methoxy]-1-methyl-4-isopropyl-7-oxabicyclo[2.2.1]heptane]
≥ 80%: inhibition at 1200 g/ha (Echinochloa crus-galli [5]) | inhibition at 1200 g/ha (Digitaria ciliaris [6]) | inhibition at 1200 g/ha [2] | inhibition at 1200 g/ha (Echinochloa crus-galli [7]) | inhibition at 1200 g/ha (Digitaria ciliaris [8]) | pest or weed control at 1200 g/ha [4]

Cc1ccccc1CO[C@@H]1C[C@]2(C(C)C)O[C@@]1(C)CC2c1ccccc1 (stereo partly drawn) [1-313, (1S,2R,4R)-4-isopropyl-1-methyl-2-((2-methylbenzyl)oxy)-5-phenyl-7-oxabicyclo[2.2.1]heptane]
≥ 80%: inhibition at 1200 g/ha (Echinochloa crus-galli [5]) | inhibition at 75 g/ha [1] | inhibition at 1200 g/ha [2] | inhibition at 1200 g/ha (Echinochloa crus-galli [7]) | inhibition at 75 g/ha [3] | pest or weed control at 1200 g/ha [4]

CC(C)[C@@]12C[C@H](OCc3c(Cl)cccc3Cl)[C@@](C)(C[C@H]1I)O2 [1-1120, (1R,2S,4S,5R)-2-[(2,6-dichlorophenyl)methoxy]-5-iodo-1-methyl-4-isopropyl-7-oxabicyclo[2.2.1]heptane]
≥ 80%: inhibition at 1200 g/ha (Echinochloa crus-galli [5]) | inhibition at 1200 g/ha (Digitaria ciliaris [6]) | inhibition at 1200 g/ha [2] | inhibition at 1200 g/ha (Echinochloa crus-galli [7]) | inhibition at 1200 g/ha (Digitaria ciliaris [8]) | pest or weed control at 1200 g/ha [4]

CC(C)[C@]12C[C@@H](OCc3ccc(C#N)cc3)[C@](C)(C[C@@H]1Br)O2 [1-705, 4-[[(1S,2R,4R,5S)-5-bromo-1-methyl-4-isopropyl-7-oxabicyclo[2.2.1]heptan-2-yl]oxymethyl]benzonitrile]
≥ 80%: inhibition at 1200 g/ha (Echinochloa crus-galli [5]) | inhibition at 1200 g/ha (Digitaria ciliaris [6]) | inhibition at 1200 g/ha [2] | inhibition at 1200 g/ha (Echinochloa crus-galli [7]) | inhibition at 1200 g/ha (Digitaria ciliaris [8]) | pest or weed control at 1200 g/ha [4]

CC(C)[C@@]12C[C@H](OCc3c(F)cccc3Br)[C@@](C)(C[C@H]1I)O2 [1-1601, (1R,2S,4S,5R)-2-[(2-bromo-6-fluorophenyl)methoxy]-5-iodo-1-methyl-4-isopropyl-7-oxabicyclo[2.2.1]heptane]
≥ 80%: inhibition at 1200 g/ha (Echinochloa crus-galli [5]) | inhibition at 1200 g/ha (Digitaria ciliaris [6]) | inhibition at 1200 g/ha [2] | inhibition at 1200 g/ha (Echinochloa crus-galli [7]) | inhibition at 1200 g/ha (Digitaria ciliaris [8]) | pest or weed control at 1200 g/ha [4]
